What was measured:
A3/KAW = experiment: DLBCL cell line sensitivity to IKE (CellTiter-Glo viability, 24 h); format: cell-based; conditions: read-out: cell line sensitivity to IKE (IC50 class)
Description: (§1) DLBCL cells were plated at 10,000 cells per well in white 384-well plates (32 μL per well) in technical duplicates and incubated overnight. The cells were then treated with 8 μL medium containing a two-fold dilution series of vehicle (DMSO), IKE (starting from 100 μM) with or without Fer-1 (starting from 200 μM). After 24 h incubation, 40 μL of 50% CellTiter-Glo (Promega) 50% cell culture medium was added to each well and incubated at room temperature with shaking for 15 min. Luminescence was measured using a Victor X5 plate reader (PerkinElmer). All cell viability data were normalized to the DMSO vehicle condition. Experiments were performed three independent times with different passages for each cell line.

DOHH 2 = experiment: as above; format: cell-based; conditions: Homo sapiens; DOHH 2, 24 hours; read-out: cell line sensitivity to IKE (IC50 class)
Description: as §1

HBL 1 = experiment: as above; format: cell-based; conditions: HBL 1, 24 hours
Description: as §1

KARPAS 422 = experiment: as above; format: cell-based; conditions: KARPAS 422, 24 hours
Description: as §1

LY 7 = experiment: as above; format: cell-based; conditions: LY7; LY 7, 24 hours; read-out: cell line sensitivity to IKE (IC50 class)
Description: as §1

LY 8 = experiment: as above; format: cell-based; conditions: LY 8, 24 hours; read-out: cell line sensitivity to IKE (IC50 class)
Description: as §1

RIVA = experiment: as above; format: cell-based
Description: as §1

SUDHL 10 = experiment: as above; format: cell-based; conditions: Homo sapiens, SU-DHL10; SUDHL 10, 24 hours; read-out: cell line sensitivity to IKE (IC50 class)
Description: as §1

SUDHL 16 = experiment: as above; format: cell-based; conditions: Homo sapiens, SU-DHL-16; SUDHL 16, 24 hours; read-out: cell line sensitivity to IKE (IC50 class)
Description: as §1

SUDHL 2 = experiment: as above; format: cell-based; conditions: Homo sapiens, SU-DHL-2; SUDHL 2, 24 hours; read-out: cell line sensitivity to IKE (IC50 class)
Description: as §1

SUDHL 5 = experiment: as above; format: cell-based; conditions: Homo sapiens, SU-DHL-5; SUDHL 5, 24 hours; read-out: cell line sensitivity to IKE (IC50 class)
Description: as §1

SUDHL 6 = experiment: as above; format: cell-based; conditions: Homo sapiens, SU-DHL-6; SUDHL 6, 24 hours; read-out: cell line sensitivity to IKE (IC50 class)
Description: as §1

SUDHL 7 = experiment: as above; format: cell-based; conditions: SUDHL 7, 24 hours; read-out: cell line sensitivity to IKE (IC50 class)
Description: as §1

SUDHL 8 = experiment: as above; format: cell-based; conditions: SUDHL 8, 24 hours
Description: as §1

SUDHL 9 = experiment: as above; format: cell-based; conditions: SUDHL 9, 24 hours
Description: as §1

U2932 = experiment: as above; format: cell-based; conditions: Homo sapiens; U2932, 24 hours; read-out: cell line sensitivity to IKE (IC50 class)
Description: as §1

U937 = experiment: as above; format: cell-based; conditions: Homo sapiens, U-937; U937, 24 hours; read-out: cell line sensitivity to IKE (IC50 class)
Description: as §1

WSU-NHL = experiment: as above; format: cell-based
Description: as §1

SUDHL6 cells = experiment: C-11 BODIPY lipid peroxidation measurement (flow cytometry); format: cell-based; conditions: different concentrations of IKE
Description: 0.20 million SUDHL-6 cells were seeded in sixc^− well plates and treated with DMSO, IKE, or Fer-1 at specific concentration. The final cell density of 0.05 million cells/mL. After 24 h, cells were harvested by centrifuging at 300×g for 5 min. Cells were resuspended in 500 μL HBSS containing 2 μM C11-BODIPY (BODIPY 581/591 C11) (Thermo Fisher Scientific, D3861) and incubated at 37° C. for 15 min. Cells were pelleted and resuspended in HBSS. Fluorescence intensity was measured on the FL1 channel with gating to record live cells only (gate constructed from DMSO treatment group). A minimum of 10,000 cells were analyzed per condition.

[1] = Erastin and IKE solubility measurements (nephelometry); format: physicochemical
Description: Solubility measurement samples were prepared in a 96-well Corning Costar plate with two at 1% and 5% DMSO v/v with a total sample volume of 200 μL in MilliQ water. A BMG Labtech NEPHELOstar nephelometer was used to measure turbidity of the samples with the following parameters per the instrument manufacturer: Gain=80, Laser Focus=2.50 mm, and Laser Intensity=90%. Samples were shaken in the nephelometer by orbital shaking for 3 s prior to the turbidity measurement. Sample values were blanked in the instrument software using the corresponding water and DMSO condition values. Turbidity 4000 NTU Calibration Standard-Formazin (Millipore-Sigma) was used as a positive control for all turbidity measurements. The turbidity of each sample was measured within 20 minutes of initial preparation. After the initial measurement, the sample plates were covered with aluminum sealing film and allowed to sit overnight at room temperature prior to re-measuring.

some cell lines = conditions: cited from earlier work

cell line sensitivity to IKE (IC50 class) (KARPAS 422): moderately resistant
IC50 (SUDHL 10): < 100 nM
IC50 (SUDHL 16): < 100 nM
IC50 (SUDHL 2): < 100 nM
IC50 (SUDHL 5): < 100 nM
IC50 (SUDHL 6): < 100 nM
IC50 (SUDHL 7): > 10000 nM
cell line sensitivity to IKE (IC50 class) (SUDHL 8): moderately resistant
cell line sensitivity to IKE (IC50 class) (SUDHL 9): moderately resistant
IC50 (U937): > 10000 nM
SMILES: CC(C)Oc1ccc(C(=O)Cn2ccnc2)cc1-n1c(CN2CCN(C(=O)COc3ccc(Cl)cc3)CC2)nc2ccccc2c1=O [IKE, Imidazole ketone erastin]
IC50 (A3/KAW): > 10000 nM
IC50 (DOHH 2): < 100 nM
cell line sensitivity to IKE (IC50 class) (HBL 1): moderately resistant
IC50 (LY 7): > 10000 nM
IC50 (LY 8): < 100 nM
cell line sensitivity to IKE (IC50 class) (RIVA): moderately resistant
IC50 (U2932): > 10000 nM
cell line sensitivity to IKE (IC50 class) (WSU-NHL): moderately resistant
lipid ROS (C11-BODIPY) (SUDHL6 cells): dose-dependent increase in lipid ROS
water solubility (in words) [1]: soluble under acidic aqueous conditions, but not to the same degree under neutral aqueous conditions
potency improvement compared with erastin (some cell lines): > 100 ×
